This assay concerns the target Metabotropic glutamate receptor 4 (Homo sapiens, UniProt Q14833). Put plainly: Ca2+ Mobilization In Vitro Assay: About 24 hrs before an experiment, 5×10^4 cells/well were seeded in poly-D-lysine coated, black/clear-bottomed 96-well plates. The cells were loaded with 2.5 μM Fluo-4AM in loading buffer (1×HBSS, 20 mM HEPES) for 1 hr at 37° C. and washed five times with loading buffer. The cells were transferred into a Functional Drug Screening System 7000 (Hamamatsu, Paris, France), and 11 half logarithmic serial dilutions of test compound at 37° C. were added and the cells were incubated for 10-30 min. with on-line recording of fluorescence. Following this pre-incubation step, the agonist (2S)-2-amino-4-phosphonobutanoic acid (L-AP4) was added to the cells at a concentration corresponding to EC20 with on-line recording of fluorescence; in order to account for day-to-day variations in the responsiveness of cells, the EC20 of L-AP4 was determined immediately ahead of each experiment by recording of a full dose-response curve of L-AP4. Responses were measured as peak increase in fluorescence minus basal (i.e. fluorescence without addition of L-AP4), normalized to the maximal stimulatory effect obtained with saturating concentrations of L-AP4. Graphs were plotted with the % maximal stimulatory using XLfit, a curve fitting program that iteratively plots the data using Levenburg Marquardt algorithm. […].

Chain of Metabotropic glutamate receptor 4 (Q14833 whole entry): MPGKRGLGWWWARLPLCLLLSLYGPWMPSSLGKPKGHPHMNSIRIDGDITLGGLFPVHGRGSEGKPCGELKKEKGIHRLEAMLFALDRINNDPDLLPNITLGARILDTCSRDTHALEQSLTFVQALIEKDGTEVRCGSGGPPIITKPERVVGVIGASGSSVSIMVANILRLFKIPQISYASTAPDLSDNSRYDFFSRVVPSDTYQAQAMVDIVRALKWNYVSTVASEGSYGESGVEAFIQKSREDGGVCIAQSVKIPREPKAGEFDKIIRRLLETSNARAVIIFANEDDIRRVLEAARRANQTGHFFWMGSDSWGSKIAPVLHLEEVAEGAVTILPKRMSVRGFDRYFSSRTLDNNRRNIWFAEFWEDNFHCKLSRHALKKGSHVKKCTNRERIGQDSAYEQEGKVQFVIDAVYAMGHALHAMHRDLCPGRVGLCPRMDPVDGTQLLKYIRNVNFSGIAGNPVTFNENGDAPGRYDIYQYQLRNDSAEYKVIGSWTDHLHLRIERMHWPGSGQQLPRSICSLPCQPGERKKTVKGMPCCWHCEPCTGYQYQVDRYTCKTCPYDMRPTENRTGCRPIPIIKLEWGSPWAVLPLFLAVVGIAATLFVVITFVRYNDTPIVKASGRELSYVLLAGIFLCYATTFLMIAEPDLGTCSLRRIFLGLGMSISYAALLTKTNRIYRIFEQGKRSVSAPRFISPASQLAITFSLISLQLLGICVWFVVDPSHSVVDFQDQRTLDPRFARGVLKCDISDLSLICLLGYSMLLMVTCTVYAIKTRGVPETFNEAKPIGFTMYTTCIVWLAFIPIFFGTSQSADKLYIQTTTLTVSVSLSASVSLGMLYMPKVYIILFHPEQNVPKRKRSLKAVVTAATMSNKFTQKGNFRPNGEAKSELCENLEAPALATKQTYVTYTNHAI

`O=c1[nH]c2ncsc2c(=O)n1-c1c(F)cc(C#Cc2ccccc2)cc1F` showed an EC50 of 187 nM.

What is called EC50 is the concentration at which the effect is half-maximal.

The values above are taken from ChEMBL document CHEMBL5725383, “Ethynyl derivatives” (2017).
